Values of other authors as cited in patent publication US9504662B2, “Composition for skin improvement comprising hexamidines and retinoids” (AMOREPACIFIC CORPORATION, priority 2009, dated 2016).

Details: 4 μM of retinol vs 100 nM of Isotretinoin; general statement, no method given

CC1=C(/C=C/C(C)=C/C=C/C(C)=C/CO)C(C)(C)CCC1 [retinol]
sebum-inhibiting effect: substantially has the same degree of sebum-inhibiting effect as 100 nM of Isotretinoin
